For test [1], the system named is A2AR. Particulars: ref [36]; cited from earlier work.
The subject of test [2] is Nb6E-E2-PTHR1. In words: cell signaling assay Nb6E-E2-PTHR1. The format is cell-based. Particulars: comparison with past work ref [26].

On to `CCNC(=O)[C@H]1O[C@@H](n2cnc3c(N)nc(NCCc4ccc(CCC(=O)O)cc4)nc32)[C@H](O)[C@@H]1O` [CGS21680], for which, in test [1], the A2AR agonism result is “potent agonist of A2AR”.

On to PTH(1–34): prototypical PTHR1 ligand, for which the “potency relative to past work using wild-type PTHR1” value in test [2] is given as “potency comparable to past work using wild-type PTHR1”.

These data come from article PMC10200341 (Bioconjugate chemistry, 2022).
